In PMC11249646, “Small-Molecule Disruptors of the Interaction between Calcium- and Integrin-Binding Protein 1 and Integrin αIIbβ3 as Novel Antiplatelet Agents” (ACS Pharmacology & Translational Science, 2024):
pIC50: −log10 of the molar value.

Target: T1, CIB1 and αIIb interaction (CIB1-GST : F-αIIb peptide) (Homo sapiens, UniProt Q99828)
T1 construct: made in house; host or cells: BL-21 plus RIL cells (E. coli)
T1 sequence (Q99828 1-191): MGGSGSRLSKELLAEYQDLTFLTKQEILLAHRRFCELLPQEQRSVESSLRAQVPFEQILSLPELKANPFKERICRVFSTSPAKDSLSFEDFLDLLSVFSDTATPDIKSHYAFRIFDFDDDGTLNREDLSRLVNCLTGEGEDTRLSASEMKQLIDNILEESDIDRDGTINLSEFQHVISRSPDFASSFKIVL
Test: FP assay, 1536-well qHTS format (primary and confirmatory screen)
Assay type: binding
Conditions: qHTS primary screen hits, Table S2; negative = inhibition

Structure (SMILES) | Efficacy (%)
Cc1cc(OCCCc2c(C(=O)O)n(Cc3cccnc3)c3c(-c4c(COc5ccc(N6CCN(S(C)(=O)=O)CC6)cc5)nn(C)c4C)cccc23)cc(C)c1Cl [NCGC00347283-01] | -26
COc1ccc(OC)c(-n2c3c(cc(-c4nnn(-c5ccc(Cl)cc5)n4)c2=O)C(=O)CC(C)(C)C3)c1.O=C(O)C(F)(F)F [NCGC00347300-01] | -41
O=C(Nc1ccc(S(=O)(=O)N2CCOCC2)cc1)c1ccc(N2CCc3ccccc3C2)cc1 [NCGC00348032-01] | -34
O=C(Nc1ccc(S(=O)(=O)N2CCOCC2)cc1)c1ccc(CN2CCCc3ccccc32)cc1.O=C(O)C(F)(F)F [NCGC00348355-01] | -15
CCC(C)(C)n1nnnc1C(c1cc2ccc(OC)cc2[nH]c1=O)N1CCc2ccccc2C1.O=C(O)C(F)(F)F (stereo not drawn) [NCGC00350929-01] | -29
CC1=C(C(=O)Nc2ccc(C(=O)O)cc2)C(c2ccccc2Cl)N=C(Nc2nc3ccccc3o2)N1.O=C(O)C(F)(F)F (stereo not drawn) [NCGC00351025-01] | -29
O=C(O)C(F)(F)F.O=C(c1ccc2ccccc2c1)c1no[n+]([O-])c1C(=O)c1ccc2ccccc2c1 [NCGC00351316-01] | -35
C#CCOC(=O)NCCCC[C@H](N)C(=O)O [NCGC00351539-01] | -24
Cc1ccccc1C(=O)N1CCc2cc(-c3nc(NC(=O)Cc4cccc(OCCOCCOCCN)c4)sc3C)ccc21.O=C(O)C(F)(F)F [NCGC00351617-01] | -37
CCCCn1nc(-c2ccccc2)c2nc3ccccc3nc21.O=C(O)C(F)(F)F [NCGC00351644-02] | -127
O=C(O)C(F)(F)F.O=C(O)c1csc(-n2nc(-c3ccc(F)c(Cc4ccccc4)c3)cc2O)n1 [NCGC00356005-01] | -47
CCOC(=O)OC(C)OC(=O)c1csc(-n2nc(-c3ccc(F)c(F)c3)cc2O)n1.O=C(O)C(F)(F)F (stereo not drawn) [NCGC00356024-01] | -35
O=C(O)C(F)(F)F.OC(CN1CCCCC1)Cn1c2ccc(Cl)cc2c2cc(Cl)ccc21 (stereo not drawn) [NCGC00356030-01] | -35
Cn1ccc(=Nc2ccc(NC(=O)c3ccc(/N=c4/ccn(C)c5ccc([N+](=O)[O-])cc45)cc3)cc2)cc1.O=C(O)C(F)(F)F [NCGC00356208-01] | -35
Cl.O=C(O)c1csc(-n2nc(-c3ccc(F)c(F)c3)c(Cc3ccccc3)c2O)n1 [NCGC00356264-02] | -25

Same assay, conditions: qHTS primary screen hits, Table S2; negative sign = inhibitory curve

Structure (SMILES) | Curve Class
Cc1cc(OCCCc2c(C(=O)O)n(Cc3cccnc3)c3c(-c4c(COc5ccc(N6CCN(S(C)(=O)=O)CC6)cc5)nn(C)c4C)cccc23)cc(C)c1Cl [NCGC00347283-01] | -2.4
COc1ccc(OC)c(-n2c3c(cc(-c4nnn(-c5ccc(Cl)cc5)n4)c2=O)C(=O)CC(C)(C)C3)c1.O=C(O)C(F)(F)F [NCGC00347300-01] | -3
O=C(O)C(F)(F)F.O=C(c1ccc2ccccc2c1)c1no[n+]([O-])c1C(=O)c1ccc2ccccc2c1 [NCGC00351316-01] | -2.2
O=C(O)C(F)(F)F.OC(CN1CCCCC1)Cn1c2ccc(Cl)cc2c2cc(Cl)ccc21 (stereo not drawn) [NCGC00356030-01] | -3

Same assay, conditions: qHTS primary screen hits, Table S2; negative sign = inhibitory curve; several classes where COUNT > 1

Structure (SMILES) | Curve Class
O=C(Nc1ccc(S(=O)(=O)N2CCOCC2)cc1)c1ccc(N2CCc3ccccc3C2)cc1 [NCGC00348032-01] | -2.4
O=C(Nc1ccc(S(=O)(=O)N2CCOCC2)cc1)c1ccc(CN2CCCc3ccccc32)cc1.O=C(O)C(F)(F)F [NCGC00348355-01] | -2.4
CCC(C)(C)n1nnnc1C(c1cc2ccc(OC)cc2[nH]c1=O)N1CCc2ccccc2C1.O=C(O)C(F)(F)F (stereo not drawn) [NCGC00350929-01] | -2.4
CC1=C(C(=O)Nc2ccc(C(=O)O)cc2)C(c2ccccc2Cl)N=C(Nc2nc3ccccc3o2)N1.O=C(O)C(F)(F)F (stereo not drawn) [NCGC00351025-01] | -2.4
C#CCOC(=O)NCCCC[C@H](N)C(=O)O [NCGC00351539-01] | -2.4
Cc1ccccc1C(=O)N1CCc2cc(-c3nc(NC(=O)Cc4cccc(OCCOCCOCCN)c4)sc3C)ccc21.O=C(O)C(F)(F)F [NCGC00351617-01] | -2.4
CCCCn1nc(-c2ccccc2)c2nc3ccccc3nc21.O=C(O)C(F)(F)F [NCGC00351644-02] | -1.1
O=C(O)C(F)(F)F.O=C(O)c1csc(-n2nc(-c3ccc(F)c(Cc4ccccc4)c3)cc2O)n1 [NCGC00356005-01] | -2.2
CCOC(=O)OC(C)OC(=O)c1csc(-n2nc(-c3ccc(F)c(F)c3)cc2O)n1.O=C(O)C(F)(F)F (stereo not drawn) [NCGC00356024-01] | -2.4
Cn1ccc(=Nc2ccc(NC(=O)c3ccc(/N=c4/ccn(C)c5ccc([N+](=O)[O-])cc45)cc3)cc2)cc1.O=C(O)C(F)(F)F [NCGC00356208-01] | -2.4
Cl.O=C(O)c1csc(-n2nc(-c3ccc(F)c(F)c3)c(Cc3ccccc3)c2O)n1 [NCGC00356264-02] | -2.4

Same assay, conditions: qHTS primary screen hits, Table S2; read-out: IC50

Structure (SMILES) | pIC50
Cc1cc(OCCCc2c(C(=O)O)n(Cc3cccnc3)c3c(-c4c(COc5ccc(N6CCN(S(C)(=O)=O)CC6)cc5)nn(C)c4C)cccc23)cc(C)c1Cl [NCGC00347283-01] | 4.47
COc1ccc(OC)c(-n2c3c(cc(-c4nnn(-c5ccc(Cl)cc5)n4)c2=O)C(=O)CC(C)(C)C3)c1.O=C(O)C(F)(F)F [NCGC00347300-01] | 4.05
O=C(Nc1ccc(S(=O)(=O)N2CCOCC2)cc1)c1ccc(N2CCc3ccccc3C2)cc1 [NCGC00348032-01] | 4.30
O=C(Nc1ccc(S(=O)(=O)N2CCOCC2)cc1)c1ccc(CN2CCCc3ccccc32)cc1.O=C(O)C(F)(F)F [NCGC00348355-01] | 4.30
CCC(C)(C)n1nnnc1C(c1cc2ccc(OC)cc2[nH]c1=O)N1CCc2ccccc2C1.O=C(O)C(F)(F)F (stereo not drawn) [NCGC00350929-01] | 4.25
CC1=C(C(=O)Nc2ccc(C(=O)O)cc2)C(c2ccccc2Cl)N=C(Nc2nc3ccccc3o2)N1.O=C(O)C(F)(F)F (stereo not drawn) [NCGC00351025-01] | 4.30
O=C(O)C(F)(F)F.O=C(c1ccc2ccccc2c1)c1no[n+]([O-])c1C(=O)c1ccc2ccccc2c1 [NCGC00351316-01] | 4.35
C#CCOC(=O)NCCCC[C@H](N)C(=O)O [NCGC00351539-01] | 4.25
Cc1ccccc1C(=O)N1CCc2cc(-c3nc(NC(=O)Cc4cccc(OCCOCCOCCN)c4)sc3C)ccc21.O=C(O)C(F)(F)F [NCGC00351617-01] | 4.30
CCCCn1nc(-c2ccccc2)c2nc3ccccc3nc21.O=C(O)C(F)(F)F [NCGC00351644-02] | 4.60
O=C(O)C(F)(F)F.O=C(O)c1csc(-n2nc(-c3ccc(F)c(Cc4ccccc4)c3)cc2O)n1 [NCGC00356005-01] | 4.10
CCOC(=O)OC(C)OC(=O)c1csc(-n2nc(-c3ccc(F)c(F)c3)cc2O)n1.O=C(O)C(F)(F)F (stereo not drawn) [NCGC00356024-01] | 4.10
O=C(O)C(F)(F)F.OC(CN1CCCCC1)Cn1c2ccc(Cl)cc2c2cc(Cl)ccc21 (stereo not drawn) [NCGC00356030-01] | 4.10
Cn1ccc(=Nc2ccc(NC(=O)c3ccc(/N=c4/ccn(C)c5ccc([N+](=O)[O-])cc45)cc3)cc2)cc1.O=C(O)C(F)(F)F [NCGC00356208-01] | 4.25
Cl.O=C(O)c1csc(-n2nc(-c3ccc(F)c(F)c3)c(Cc3ccccc3)c2O)n1 [NCGC00356264-02] | 4.10

Same assay, conditions: qHTS primary screen of LOPAC/NPACT libraries; negative = inhibition

Efficacy (%) | Structure (SMILES)
-25 | COc1cc2c(cc1OC)-c1[nH]nc(Nc3cccc(F)c3)c1C2 [NCGC00343986-02]
-26 | CC1(C)CCC(CN2CCN(c3ccc(C(=O)NS(=O)(=O)c4ccc(NCC5CCOCC5)c([N+](=O)[O-])c4)c(Oc4cnc5[nH]ccc5c4)c3)CC2)=C(c2ccc(Cl)cc2)C1 [NCGC00345789-10]
-28 | Cc1cc(N2CCOCC2)cc2[nH]c(-c3c(NC[C@@H](O)c4cccc(Cl)c4)cc[nH]c3=O)nc12 [NCGC00346460-05]
-28 | C=CC(=O)Nc1cccc(Oc2nc(Nc3ccc(N4CCN(C)CC4)cc3)ncc2Cl)c1 [NCGC00346496-04]
-29 | C=CC(=O)Nc1cccc(Sc2nc(Nc3ccc(N4CCN(C)CC4)cc3)ncc2Cl)c1 [NCGC00346497-02]
-30 | CC(C)(O)CC(=O)NCCn1ccc2ncnc(Nc3ccc(Oc4cccc(C(F)(F)F)c4)c(Cl)c3)c21 [NCGC00346699-06]
-23 | CC(=O)O[C@@H](CO[C@@H]1O[C@H](CO)[C@H](O)[C@H](O)[C@H]1O)[C@]1(C)C=C2CC[C@@H]3C(C)(C)[C@@H](O)CC[C@@]3(C)[C@@H]2CC1 [NCGC00347395-02]

Same assay, conditions: qHTS primary screen of LOPAC/NPACT libraries; negative sign = inhibitory curve

Curve Class | Structure (SMILES)
-2.4 | COc1cc2c(cc1OC)-c1[nH]nc(Nc3cccc(F)c3)c1C2 [NCGC00343986-02]
-2.4 | CC1(C)CCC(CN2CCN(c3ccc(C(=O)NS(=O)(=O)c4ccc(NCC5CCOCC5)c([N+](=O)[O-])c4)c(Oc4cnc5[nH]ccc5c4)c3)CC2)=C(c2ccc(Cl)cc2)C1 [NCGC00345789-10]
-1.4 | Cc1cc(N2CCOCC2)cc2[nH]c(-c3c(NC[C@@H](O)c4cccc(Cl)c4)cc[nH]c3=O)nc12 [NCGC00346460-05]
-2.4 | C=CC(=O)Nc1cccc(Oc2nc(Nc3ccc(N4CCN(C)CC4)cc3)ncc2Cl)c1 [NCGC00346496-04]
-2.4 | C=CC(=O)Nc1cccc(Sc2nc(Nc3ccc(N4CCN(C)CC4)cc3)ncc2Cl)c1 [NCGC00346497-02]
-2.4 | CC(C)(O)CC(=O)NCCn1ccc2ncnc(Nc3ccc(Oc4cccc(C(F)(F)F)c4)c(Cl)c3)c21 [NCGC00346699-06]
-2.4 | CC(=O)O[C@@H](CO[C@@H]1O[C@H](CO)[C@H](O)[C@H](O)[C@H]1O)[C@]1(C)C=C2CC[C@@H]3C(C)(C)[C@@H](O)CC[C@@]3(C)[C@@H]2CC1 [NCGC00347395-02]

Same assay, conditions: qHTS primary screen of LOPAC/NPACT libraries; read-out: IC50

pIC50 | Structure (SMILES)
4.20 | COc1cc2c(cc1OC)-c1[nH]nc(Nc3cccc(F)c3)c1C2 [NCGC00343986-02]
4.40 | CC1(C)CCC(CN2CCN(c3ccc(C(=O)NS(=O)(=O)c4ccc(NCC5CCOCC5)c([N+](=O)[O-])c4)c(Oc4cnc5[nH]ccc5c4)c3)CC2)=C(c2ccc(Cl)cc2)C1 [NCGC00345789-10]
4.75 | Cc1cc(N2CCOCC2)cc2[nH]c(-c3c(NC[C@@H](O)c4cccc(Cl)c4)cc[nH]c3=O)nc12 [NCGC00346460-05]
4.35 | C=CC(=O)Nc1cccc(Oc2nc(Nc3ccc(N4CCN(C)CC4)cc3)ncc2Cl)c1 [NCGC00346496-04]
4.70 | C=CC(=O)Nc1cccc(Sc2nc(Nc3ccc(N4CCN(C)CC4)cc3)ncc2Cl)c1 [NCGC00346497-02]
4.00 | CC(C)(O)CC(=O)NCCn1ccc2ncnc(Nc3ccc(Oc4cccc(C(F)(F)F)c4)c(Cl)c3)c21 [NCGC00346699-06]
4.80 | CC(=O)O[C@@H](CO[C@@H]1O[C@H](CO)[C@H](O)[C@H](O)[C@H]1O)[C@]1(C)C=C2CC[C@@H]3C(C)(C)[C@@H](O)CC[C@@]3(C)[C@@H]2CC1 [NCGC00347395-02]
